Assay results reported in article PMC5390467, “Novel lead structures with both Plasmodium falciparum gametocytocidal and asexual blood stage activity identified from high throughput compound screening” (Malaria Journal, 2017).
Several values for one entry are separate records, joined by “and”; a condition that tells them apart may be missing. Equal entries are not always repeated.

What was measured:
ALK(C1156Y) = target: T1, ALK(C1156Y) (Homo sapiens, UniProt Q9UM73, C1156Y); experiment: Kinome scan profile; type: binding; conditions: 10 μM
T1 construct: purchased DiscoverX (KINOMEscan)
T1 sequence (Q9UM73 19-1620 C1156Y): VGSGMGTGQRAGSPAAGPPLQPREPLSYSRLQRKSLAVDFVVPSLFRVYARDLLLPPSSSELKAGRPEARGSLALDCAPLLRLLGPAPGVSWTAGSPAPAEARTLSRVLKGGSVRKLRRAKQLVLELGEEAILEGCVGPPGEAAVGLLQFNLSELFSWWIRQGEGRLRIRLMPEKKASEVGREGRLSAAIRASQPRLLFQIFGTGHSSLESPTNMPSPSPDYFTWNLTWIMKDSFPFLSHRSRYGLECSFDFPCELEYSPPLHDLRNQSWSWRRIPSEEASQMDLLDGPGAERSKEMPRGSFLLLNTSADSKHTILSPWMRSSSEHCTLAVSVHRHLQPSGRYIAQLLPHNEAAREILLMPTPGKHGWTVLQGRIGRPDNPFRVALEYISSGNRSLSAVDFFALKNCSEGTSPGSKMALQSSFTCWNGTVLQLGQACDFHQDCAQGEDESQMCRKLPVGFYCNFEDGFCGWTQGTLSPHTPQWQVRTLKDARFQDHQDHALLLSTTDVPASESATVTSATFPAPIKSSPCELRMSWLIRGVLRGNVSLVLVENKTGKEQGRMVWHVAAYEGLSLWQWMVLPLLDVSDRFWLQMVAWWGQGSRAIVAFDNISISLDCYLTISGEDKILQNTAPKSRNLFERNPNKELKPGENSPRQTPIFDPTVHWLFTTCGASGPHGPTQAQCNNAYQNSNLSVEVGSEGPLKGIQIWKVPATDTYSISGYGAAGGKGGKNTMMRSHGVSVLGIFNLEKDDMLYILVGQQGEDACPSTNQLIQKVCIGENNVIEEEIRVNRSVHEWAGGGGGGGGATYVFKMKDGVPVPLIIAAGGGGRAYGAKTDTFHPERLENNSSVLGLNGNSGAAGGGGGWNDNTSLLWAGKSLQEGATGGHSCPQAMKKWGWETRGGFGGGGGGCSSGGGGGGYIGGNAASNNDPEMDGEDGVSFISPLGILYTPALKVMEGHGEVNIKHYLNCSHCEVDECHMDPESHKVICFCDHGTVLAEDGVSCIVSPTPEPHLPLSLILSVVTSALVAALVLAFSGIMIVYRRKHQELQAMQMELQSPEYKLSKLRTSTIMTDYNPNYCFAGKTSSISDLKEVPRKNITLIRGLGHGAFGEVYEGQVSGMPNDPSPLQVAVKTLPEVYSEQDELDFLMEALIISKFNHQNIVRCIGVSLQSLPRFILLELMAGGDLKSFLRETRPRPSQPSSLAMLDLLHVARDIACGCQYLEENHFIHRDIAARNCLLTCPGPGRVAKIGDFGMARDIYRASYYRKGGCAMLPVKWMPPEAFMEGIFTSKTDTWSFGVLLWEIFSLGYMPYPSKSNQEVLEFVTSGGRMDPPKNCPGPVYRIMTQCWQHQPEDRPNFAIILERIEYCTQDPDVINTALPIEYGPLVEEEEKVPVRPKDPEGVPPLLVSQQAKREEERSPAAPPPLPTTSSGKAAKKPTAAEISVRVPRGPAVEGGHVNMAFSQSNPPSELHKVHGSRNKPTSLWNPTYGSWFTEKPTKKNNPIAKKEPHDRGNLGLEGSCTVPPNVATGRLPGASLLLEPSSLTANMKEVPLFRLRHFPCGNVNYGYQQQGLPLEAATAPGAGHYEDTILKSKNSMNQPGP

MYLK = target: T2, MYLK (Homo sapiens, UniProt Q15746); experiment: Kinome scan profile; type: binding; conditions: 10 μM
T2 construct: purchased DiscoverX (KINOMEscan)
T2 sequence (Q15746 whole entry): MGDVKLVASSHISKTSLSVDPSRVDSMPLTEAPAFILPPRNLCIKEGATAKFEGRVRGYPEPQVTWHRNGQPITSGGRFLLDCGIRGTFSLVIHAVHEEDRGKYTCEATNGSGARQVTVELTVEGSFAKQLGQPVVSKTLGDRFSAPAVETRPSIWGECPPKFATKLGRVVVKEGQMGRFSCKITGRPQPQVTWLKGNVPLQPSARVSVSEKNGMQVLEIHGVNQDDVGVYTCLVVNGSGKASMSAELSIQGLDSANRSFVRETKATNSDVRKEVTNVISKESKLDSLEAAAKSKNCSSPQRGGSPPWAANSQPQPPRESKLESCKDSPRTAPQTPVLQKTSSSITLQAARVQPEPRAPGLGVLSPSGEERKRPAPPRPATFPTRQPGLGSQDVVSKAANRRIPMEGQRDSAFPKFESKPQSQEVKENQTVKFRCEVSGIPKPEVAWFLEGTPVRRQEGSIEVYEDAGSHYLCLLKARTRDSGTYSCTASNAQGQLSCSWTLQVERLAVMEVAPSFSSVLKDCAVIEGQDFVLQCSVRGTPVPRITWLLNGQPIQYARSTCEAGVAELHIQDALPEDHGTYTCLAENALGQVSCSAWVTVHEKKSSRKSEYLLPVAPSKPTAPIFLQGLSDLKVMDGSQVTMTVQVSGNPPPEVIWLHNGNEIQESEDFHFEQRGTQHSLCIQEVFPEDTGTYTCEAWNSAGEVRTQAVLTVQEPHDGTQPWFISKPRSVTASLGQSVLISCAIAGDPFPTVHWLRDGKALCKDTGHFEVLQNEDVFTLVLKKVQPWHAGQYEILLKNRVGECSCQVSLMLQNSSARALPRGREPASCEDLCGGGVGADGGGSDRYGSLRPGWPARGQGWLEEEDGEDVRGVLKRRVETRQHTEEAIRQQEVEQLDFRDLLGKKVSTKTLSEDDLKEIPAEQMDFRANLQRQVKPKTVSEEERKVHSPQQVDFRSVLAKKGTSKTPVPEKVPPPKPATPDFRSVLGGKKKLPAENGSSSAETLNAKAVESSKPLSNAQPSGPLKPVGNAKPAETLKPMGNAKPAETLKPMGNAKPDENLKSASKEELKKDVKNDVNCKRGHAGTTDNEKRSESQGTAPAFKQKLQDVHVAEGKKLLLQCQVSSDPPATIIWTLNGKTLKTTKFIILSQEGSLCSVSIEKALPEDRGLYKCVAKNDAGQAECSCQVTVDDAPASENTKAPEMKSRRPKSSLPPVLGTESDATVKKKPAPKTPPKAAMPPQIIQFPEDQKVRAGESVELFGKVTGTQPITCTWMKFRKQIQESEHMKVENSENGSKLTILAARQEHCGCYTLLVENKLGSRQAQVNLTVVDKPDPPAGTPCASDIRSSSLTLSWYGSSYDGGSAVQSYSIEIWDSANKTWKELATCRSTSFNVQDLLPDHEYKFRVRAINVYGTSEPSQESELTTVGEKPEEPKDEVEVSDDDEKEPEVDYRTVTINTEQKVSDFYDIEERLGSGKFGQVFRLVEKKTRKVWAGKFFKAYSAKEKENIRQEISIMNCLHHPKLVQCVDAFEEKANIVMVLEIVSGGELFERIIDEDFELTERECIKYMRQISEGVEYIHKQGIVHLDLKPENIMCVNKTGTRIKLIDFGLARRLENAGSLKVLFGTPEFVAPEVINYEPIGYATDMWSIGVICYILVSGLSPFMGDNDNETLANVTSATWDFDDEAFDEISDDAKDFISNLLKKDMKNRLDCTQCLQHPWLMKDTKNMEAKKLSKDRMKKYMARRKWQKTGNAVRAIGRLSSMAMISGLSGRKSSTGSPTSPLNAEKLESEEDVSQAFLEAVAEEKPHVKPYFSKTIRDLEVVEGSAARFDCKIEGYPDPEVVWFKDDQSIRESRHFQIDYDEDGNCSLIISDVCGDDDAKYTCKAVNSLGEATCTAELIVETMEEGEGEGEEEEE

TRKA = target: T3, TRKA (Homo sapiens, UniProt P04629); experiment: Kinome scan profile; type: binding; conditions: 10 μM
T3 construct: purchased DiscoverX (KINOMEscan)
T3 sequence (P04629 33-796): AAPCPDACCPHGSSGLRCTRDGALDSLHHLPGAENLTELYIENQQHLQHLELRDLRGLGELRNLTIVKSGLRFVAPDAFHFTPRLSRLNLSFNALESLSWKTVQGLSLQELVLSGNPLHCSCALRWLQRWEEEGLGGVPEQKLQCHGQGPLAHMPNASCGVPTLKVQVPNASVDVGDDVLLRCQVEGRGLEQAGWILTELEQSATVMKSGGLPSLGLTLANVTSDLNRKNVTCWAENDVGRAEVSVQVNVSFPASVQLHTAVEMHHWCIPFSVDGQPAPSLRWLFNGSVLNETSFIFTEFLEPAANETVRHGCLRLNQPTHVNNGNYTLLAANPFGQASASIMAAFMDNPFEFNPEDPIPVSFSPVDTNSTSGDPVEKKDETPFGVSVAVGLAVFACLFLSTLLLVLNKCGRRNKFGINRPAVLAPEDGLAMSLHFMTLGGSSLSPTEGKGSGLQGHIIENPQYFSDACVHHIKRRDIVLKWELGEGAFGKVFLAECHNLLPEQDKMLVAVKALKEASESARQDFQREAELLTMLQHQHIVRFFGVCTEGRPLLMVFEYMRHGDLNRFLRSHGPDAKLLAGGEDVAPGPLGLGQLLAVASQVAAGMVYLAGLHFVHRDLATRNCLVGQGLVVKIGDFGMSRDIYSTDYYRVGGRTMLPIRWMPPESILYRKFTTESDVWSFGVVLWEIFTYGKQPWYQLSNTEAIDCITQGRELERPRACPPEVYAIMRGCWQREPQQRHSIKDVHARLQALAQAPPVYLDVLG

MST4 = target: T4, MST4 (Homo sapiens, UniProt Q9P289); experiment: Kinome scan profile; type: binding; conditions: 10 μM
T4 construct: purchased DiscoverX (KINOMEscan)
T4 sequence (Q9P289 whole entry): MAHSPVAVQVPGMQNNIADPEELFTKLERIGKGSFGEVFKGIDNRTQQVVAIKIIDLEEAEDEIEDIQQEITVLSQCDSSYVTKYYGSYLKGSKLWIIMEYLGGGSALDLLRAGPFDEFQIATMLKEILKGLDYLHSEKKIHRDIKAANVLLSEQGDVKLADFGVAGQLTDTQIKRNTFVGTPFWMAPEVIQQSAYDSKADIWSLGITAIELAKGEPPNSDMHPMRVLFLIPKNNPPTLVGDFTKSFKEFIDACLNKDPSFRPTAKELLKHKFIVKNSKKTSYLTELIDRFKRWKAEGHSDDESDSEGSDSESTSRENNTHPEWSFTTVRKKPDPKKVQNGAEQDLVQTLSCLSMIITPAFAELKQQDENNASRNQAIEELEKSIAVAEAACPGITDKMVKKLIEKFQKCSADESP

SNRK = target: T5, SNRK (Homo sapiens, UniProt Q9NRH2); experiment: Kinome scan profile; type: binding; conditions: 10 μM
T5 construct: purchased DiscoverX (KINOMEscan)
T5 sequence (Q9NRH2 1-765): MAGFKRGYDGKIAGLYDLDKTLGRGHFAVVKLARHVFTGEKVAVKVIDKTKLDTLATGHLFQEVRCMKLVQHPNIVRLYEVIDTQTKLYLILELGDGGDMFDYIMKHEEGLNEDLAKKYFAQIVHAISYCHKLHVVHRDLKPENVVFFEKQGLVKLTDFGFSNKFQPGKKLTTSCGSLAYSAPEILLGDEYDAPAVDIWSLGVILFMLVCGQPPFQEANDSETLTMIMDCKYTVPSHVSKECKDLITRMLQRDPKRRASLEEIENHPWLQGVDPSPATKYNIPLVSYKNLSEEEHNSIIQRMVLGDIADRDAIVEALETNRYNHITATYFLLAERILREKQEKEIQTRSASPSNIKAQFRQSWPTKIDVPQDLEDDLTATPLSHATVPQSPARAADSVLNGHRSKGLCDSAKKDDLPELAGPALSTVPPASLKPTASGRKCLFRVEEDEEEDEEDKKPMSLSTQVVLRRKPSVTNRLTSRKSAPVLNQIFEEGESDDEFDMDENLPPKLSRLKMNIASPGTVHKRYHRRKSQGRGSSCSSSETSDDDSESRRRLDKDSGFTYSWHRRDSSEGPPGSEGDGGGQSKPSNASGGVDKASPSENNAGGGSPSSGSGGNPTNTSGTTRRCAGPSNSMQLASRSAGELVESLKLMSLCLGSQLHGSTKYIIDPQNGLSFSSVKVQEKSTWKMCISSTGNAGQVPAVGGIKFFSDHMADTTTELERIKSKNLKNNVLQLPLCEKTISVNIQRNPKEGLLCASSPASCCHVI

[1] = tested on: P. falciparum NF54 gametocytes; experiment: gametocyte viability assay (AlamarBlue); type: cell-based, Plasmodium falciparum
Description: Asexual parasites of P. falciparum strain NF54 were cultured as described previously. Briefly, parasites were maintained in RPMI 1640 medium containing 10% positive human serum + erythrocytes (5% haematocrit), 2.5% sodium bicarbonate and 11 µg/mL gentamicin at 37 °C with 5% CO2, 5% O2 and 90% N2. Gametocyte cultures were set up at 0.1% parasitaemia and on days 9–10 treated with 50 mM N-acetylglucosamine (NAG) to block further asexual growth. Stage III–V gametocytes were isolated by Percoll density gradient centrifugation on day 12 and returned to culture for 24 h before being used in the assay. At the time of the assay over 73% of the gametocytes were stage IV or V (Additional file 1). HepG2 cells (ATCC, cat. no. 77400) were cultured in 175-cm^2 tissue culture flasks with 30 ml growth medium at 37 °C in a 5% CO2 and 5% O2 humidified atmosphere. Growth medium was made with Dulbecco’s Modified Eagle Medium with 10% fetal bovine serum (FBS). Growth medium was replaced every other day and cells were passaged at 75% confluence.
Compounds from the Sytravon library (a retired Pharma screening collection that contains a diversity of novel small molecules, with an emphasis on medicinal chemistry-tractable scaffolds) were obtained as powder samples and dissolved in DMSO as […] stock solutions. Compound screening experiments were performed as previously described. In the primary screen, two concentrations for each compound were tested. No technical and biological replicates were involved. In the follow-up confirmation studies, three biological replicates were tested for each compound in both parasite assays. The positive control was 46 µM of Torin 2 and negative control was DMSO. Briefly, 2.5 μL/well incomplete medium was dispensed into each well of 1536-well plates using the Multidrop Combi followed by 23 nL compound transferring using the NX-TR Pintool (WAKO Scientific Solutions, San Diego, CA). Then, 2.5 μL/well of gametocytes was dispensed with a seeding density of 20,000 cells/well using the Multidrop Combi. The assay plates were incubated for 72 h at 37 °C with 5% CO2. After addition of 5 μL/well of 2X AlamarBlue dye (Life Technologies, cat. no. DAL1100), the plates were incubated for 24 h at 37 °C with 5% CO2 and then were read in a fluorescence detection mode (Ex = 525 nm, Em = 598 nm) on a ViewLux plate reader (PerkinElmer).

PRKG2 = target: T6, PRKG2 (Homo sapiens, UniProt Q13237); experiment: Kinome scan profile; type: binding; conditions: 10 μM
T6 construct: purchased DiscoverX (KINOMEscan)
T6 sequence (Q13237 1-762): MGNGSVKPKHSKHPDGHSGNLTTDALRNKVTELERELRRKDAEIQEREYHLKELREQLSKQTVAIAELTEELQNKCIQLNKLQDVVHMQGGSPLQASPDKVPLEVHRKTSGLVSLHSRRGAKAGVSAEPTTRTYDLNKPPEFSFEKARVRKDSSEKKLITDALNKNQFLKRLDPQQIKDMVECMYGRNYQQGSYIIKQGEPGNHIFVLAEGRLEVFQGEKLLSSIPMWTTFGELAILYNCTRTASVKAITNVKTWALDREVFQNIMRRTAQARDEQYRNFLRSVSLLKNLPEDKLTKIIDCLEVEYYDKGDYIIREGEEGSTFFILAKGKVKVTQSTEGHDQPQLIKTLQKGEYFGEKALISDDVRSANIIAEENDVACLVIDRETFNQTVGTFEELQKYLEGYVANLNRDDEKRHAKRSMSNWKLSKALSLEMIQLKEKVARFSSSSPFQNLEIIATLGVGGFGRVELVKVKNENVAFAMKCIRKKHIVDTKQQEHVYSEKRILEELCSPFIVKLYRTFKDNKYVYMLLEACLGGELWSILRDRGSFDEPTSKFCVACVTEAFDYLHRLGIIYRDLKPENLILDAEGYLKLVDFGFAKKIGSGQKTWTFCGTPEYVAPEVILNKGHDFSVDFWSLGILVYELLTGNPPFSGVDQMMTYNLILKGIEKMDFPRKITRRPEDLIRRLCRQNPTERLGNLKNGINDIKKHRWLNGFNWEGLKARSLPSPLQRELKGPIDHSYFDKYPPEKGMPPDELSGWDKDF

% Control, ALK(C1156Y) (ALK(C1156Y)): 28 % Control
% Control, MYLK (MYLK): 31 % Control
% Control, TRKA (TRKA): 22 % Control
% Control, MST4 (MST4): 34 % Control
% Control, SNRK (SNRK): 27 % Control
IC50 ([1]; P. falciparum NF54 stage III-V gametocytes, 72 h, AlamarBlue, mean ± SD, n = 3): 4.18 µM and 4.34 µM
% Control, PRKG2 (PRKG2): 32 % Control
Compound: CCN1CCN(Cc2c(O)ccc3c(=O)c(Oc4ccccc4C(C)C)c(C(F)(F)F)oc23)CC1 [NCGC00100599]
Asexual/Gametocyte ([1]; ratio of asexual IC50 to gametocyte IC50): 0.08
